# Laboratory results: patent publication US20250041286A1, “CANCER TREATMENT USING KETOTIFEN IN COMBINATION WITH A CHECKPOINT INHIBITOR” (Materia Therapeutics Inc., priority 2021, published 2025)
# Entries after “also recorded” stand apart in the source; their conditions may differ.
# Experiments:
# MCA205 cells = assay: Re-challenge of long-term survivors with MCA205 cells; type: in vivo, mouse; conditions: re-challenge with 2.5×10^5 MCA205 cells s.c., 80 days after resection of primary tumors
# Excerpt: Since doxorubicin has potential to establish favorable immunogenic conditions within the TME, which could affect the efficacy of immunotherapy, it was investigated if this immune response is preserved against rechallenge of long-term survivors with the same cell line. Mice were considered long-term survivors if no tumor was detected 80 days after surgical resection of MCA205 primary tumors. Five long-term survivors from each treatment group were further re-challenged with 2.5×10^5 MCA205 cells injected subcutaneously into the flank region. Cells were prepared in 50 μl of PBS. Naïve mice were implanted in parallel as controls.
# tumors = assay: Interstitial fluid pressure, wick-in-needle technique; type: in vivo, mouse
# Protocol: Interstitial fluid pressure (IFP) was measured in vivo using the “wick-in-needle” technique after mice were anesthetized with i.p. injection of Avertin and prior to tumor excision. Additional information regarding the wick-in-needle technique is described in Dong et al., Involvement of mast cell chymase in burn wound healing in hamsters 2013; 5:643-7 and Shankaran et al. IFNγ and lymphocytes prevent primary tumour development and shape tumour immunogenicity 2001; 410:1107-11, the contents of which are incorporated herein by reference in their entirety.
# murine MC/9 MCs = assay: MC/9 - NIH3T3 transwell co-culture, mast cell degranulation by β-hexosaminidase release; type: cell-based
# Protocol: Given that both MCs and fibroblasts are present in the TME, the consequences of MC activation on myofibroblasts was explored using a co-culture assay in which murine MC/9 MCs and NIH3T3 myofibroblasts were separated by a transwell chamber with micropores that only allowed chemical communication (FIG. 13A). In this system, degranulation efficiency was determined by measuring the concentration of β-hexosaminidase (β-hex) in the supernatant. MC degranulation was induced through exposure to compound 48/80 (C48/80), which binds to the MRGPRB2 receptor (the orthologue of the human G-protein-coupled receptor MRGPRX2). […] Co-cultures treated with a vehicle control and Triton X-100 were used as internal assay control to evaluate background and maximum β-hex release, respectively. Transforming growth factor (TGF)-β1 was used as a fibroblast activator due to its capacity to induce a myofibroblast phenotype of the NIH3T3 cells. MC/9 cells were cultivated with NIH3T3 cells for 24 hours and then treated with either ketotifen or TGFβ for additional 24 hours in low serum medium, followed by a 30 minute sensitization with C48/80.
# [1] = Mouse body, thymus and spleen weight at conclusion of study; type: in vivo; conditions: highest dose (of 1, 5, 10, 25 mg/kg), i.p. once a day for 8 days
# Protocol: Each treatment group of 4-7 mice received subtherapeutic doses of ketotifen (1, 5, 10 and 25 mg/kg) for a period of 8 days. Ketotifen fumarate salt was dissolved in sterilized normal saline (0.9% NaCl in ddH2O, w/v). Ketotifen 1 mg/kg, 5 mg/kg, 10 mg/kg, 25 mg/kg or equal volume of diluent (control group) was administered by intraperitoneal injection (i.p.) once a day for 8 days. Ketotifen treatment for MCA205 and K7M2wt tumor models started when the average tumor volume reached 60 mm^3 and 150 mm^3, respectively, and completed at 600 mm^3. At study endpoint, primary tumors were surgically excised and stored in 1×PBS at −80° C. until further processing. Planar dimensions (x, y) of tumor were monitored every 2-3 days using a digital caliper and tumor volume was estimated from the volume of an ellipsoid and assuming that the third dimension, z, is equal to sqrt(x y).
# Following treatment, tumor growth (tumor volume and mass, see, FIGS. 2A and 2C for MCA205 tumors, and FIGS. 2B and 2D for K7M2wt tumors) was evaluated in the mice of each sarcoma group.
# MCA205 tumors [2] = assay: Collagen staining with Picrosirius red; type: in vivo, mouse; conditions: 10 mg/kg ketotifen
# Protocol: (§1) As tissue stiffness is caused in part by the degree of collagen expression by cancer associated fibroblasts (CAFs) and crosslinking, the intratumoral collagen levels were evaluated by histological staining using Picrosirius red.
# (§2) Briefly, tumors were removed from four mice, washed twice in 1×PBS for 10 min, and incubated with 4% PFA overnight at 4° C. The fixative was aspirated, and samples were washed twice in 1×PBS for 10 min. Tissue samples were dehydrated in successive ethanol steps and xylene followed by paraffin embedding. Serial sections ([…]) of paraffin-embedded tissues were produced using the microtome (Accu-Cut SRM 200 Rotary Microtome, SAKURA), flattened out into water, and allowed to dry overnight at 37° C. Sections were then deparaffinized and rehydrated as routinely processed for histology. Following deparaffinization and rehydration, tissue sections were submerged in Picrosirius red stain for 1 hour at room temperature. Next, tissue sections were rinsed in two changes of acetic acid, followed by two changes of absolute ethanol and finally, mounted with DPX mountant for histology (Sigma). Collagen fibers were stained in red while the remaining tissue was pale yellow.
# K7M2wt tumors [3] = assay: Collagen staining with Picrosirius red; type: in vivo, mouse; conditions: 10 mg/kg ketotifen
# Protocol: as §1, §2
# MCA205 tumors [4] = assay: Vascular and functional perfusion, contrast-enhanced ultrasound; type: in vivo, mouse; conditions: 10 mg/kg ketotifen, day 3 and day 7
# Protocol: (§3) Vascular perfusion and functional perfusion were measured simultaneously during the course of ketotifen treatment, at day 3 and day 7, using contrast-enhanced ultrasound in mice bearing MCA205 and mice bearing K7M2wt tumors. Tumor perfusion was assessed after bolus injection of 8 μl SonoVue/Lumason contrast agent (Bracco Diagnostics, Geneva, Switzerland). SonoVue contains sulphur hexafluoride microbubbles encapsulated with a phosphoilipid shell and having a mean diameter of 2.5 μm. It is delivered as a retro-orbital injection since tail vein microbubble injections tend to have high variability. Prior to each ultrasound application, mice were anesthetized by i.p. injection of Avertin (200 mg/kg).
# K7M2wt tumors [5] = assay: as above; type: in vivo, mouse; conditions: 10 mg/kg ketotifen, day 3 and day 7
# Protocol: as §3
# K7M2wt tumors [6] = assay: Immunofluorescence of T cells (CD3, CD8/Ki67, CD3/CD31) in tumor sections; type: in vivo, mouse; conditions: Ki67/CD8 staining; concluding statement
# Excerpt: Immunofluorescence staining for Ki67 and CD8, performed as described above, confirmed the activation status of recruited CD8^+ T cells in osteosarcoma tumors (K7M2wt tumors) (FIGS. 9C-9D). K7M2wt tissue sections were then stained for pimonidazole adducts as a measure of hypoxia formation.
# Immunofluorescence staining of CD3 and CD31 endothelial marker was used to assess the presence of T cells in the proximity of tumor vessel capillaries. PFA-fixed tissue cryosections of K7M2wt osteosarcoma tumors were incubated with primary rabbit anti-CD31 (Abcam, 1:50) and rat anti-CD3 (BioLegend, 1:50) overnight at 4° C. CD31 signal was detected with Alexa Fluor-488 anti-rabbit IgG (H+L) (Invitrogen, 1:400) and CD3 signal with Alexa Fluor-647 anti-rat IgG (H+L) (Invitrogen, 1:400) secondary antibodies. Cell nuclei were stained with DAPI. Tumor associated T cell to vessel content was determined by the overlapping CD31 and CD3 area fraction normalized to DAPI staining.
compound,measurement,setting,value
CN1CCC(=C2c3ccccc3CC(=O)c3sccc32)CC1 [ketotifen],tumor development after re-challenge (mice out of five long-term survivors per group),MCA205 cells,developed progressively growing tumors
same,interstitial fluid pressure (IFP),tumors; 10 mg/kg dose compared with the other doses,greatest effect
same,interstitial fluid pressure (IFP),"tumors; all doses of ketotifen, daily for 7 days",reduces; also recorded: reduction in IFP levels
same,MC degranulation (β-hex release),"murine MC/9 MCs; 24 hours treatment, then 30 minute sensitization with C48/80",inhibits degranulation in a dose-dependent manner
same,reduction in β-hex release compared to C48/80 treatment,murine MC/9 MCs; ketotifen 100 μg/ml,more than 50%
same,splenomegaly,[1],caused splenomegaly
same,collagen deposition (Picrosirius red),MCA205 tumors [2],significant reduction
same,collagen deposition (Picrosirius red),K7M2wt tumors [3],significant reduction
same,vascular and functional perfusion,MCA205 tumors [4],significant increase; also recorded: highly effective at increasing vessel perfusion
same,vascular and functional perfusion,K7M2wt tumors [5],significant increase; also recorded: highly effective at increasing vessel perfusion
same,fraction of CD8+ T cells proliferating,K7M2wt tumors [6],double
